Experimental data: US12673041B2, “4-aminobut-2-enamide derivatives and salt thereof” (TAIHO PHARMACEUTICAL CO., LTD., priority 2019, dated 2026)
pIC50: −log10 of the molar value. Where two headings read alike, the source gives them in different places.

Columns and labels:
[1] = molecular target: T1, activated KRAS in MIA PaCa-2 (Homo sapiens, UniProt P01116, G12C); assay: Amount of activated KRAS on KRAS-G12C mutant cell line MIA PaCa-2 (Ras GTPase Chemi ELISA); type: cell-based; details: for pIC50: 1 hour with compound
T1 construct: host or cells: MIA PaCa-2
Protocol: NCI-H358 [H358, H358] (ATCC® CRL5807™), which is a KRAS-G12C mutant human lung cancer cell line, and MIA PaCa-2 (ATCC® CRL-1420™), which is a KRAS-G12C mutant human pancreas cancer cell line, were suspended in a 10% fetal bovine serum-containing RPMI1640 medium (manufactured by Thermo Fischer SCIENTIFIC), respectively. The cell suspension was seeded into a cell culture plate and cultured in an incubator containing 5% CO2 gas at 37° C. for 1 day. The lyophilized recombinant human EGF protein (R&D systems, Cat #: 236-EG-200) was dissolved in PBS to make 0.5 mg/ml solution. The EGF solution in PBS was diluted by 0.4% with the medium used for suspending cells and added to each cell-culture plate to give an EGF final concentration of 100 ng/ml, followed by leaving to stand at ambient temperature for 5 minutes. Then, the compounds obtained in the “Preparation of Compounds” section were used as test compounds and were dissolved in DMSO, and each test compound was diluted with DMSO to give a concentration 200 times the final concentration. The solution of the test compound in DMSO was diluted with the medium used for suspending cells and added to each well of the cell-culture plate to give a DMSO final concentration of 0.5%, followed by culture in an incubator containing 5% CO2 gas at 37° C. for another 1 hour. The amount of activated KRAS after 1 hour culture in the presence of the compound was measured using Ras GTPase Chemi ELISA Kit (manufactured by Active Motif). The ratio of KRAS activity was calculated from the following equation, and the concentration of the test compound at which activity was suppressed to 50% (IC50 (μM)) was determined. […] The Ratio of KRAS activity to control (%)=(T−BG)/(C−BG)×100 • T: the emission intensity in a well into which a test compound was added. • C: the emission intensity in a well into which a test compound was not added. • BG: the emission intensity in a well into which neither a test compound nor a cell suspension was added.

[2] = molecular target: Gppcp-bound recombinant K-Ras4B G12C mutant protein (amino acids 1-169, C51S/C80L/C118S) (Homo sapiens, UniProt P01116, C118S/C51S/C80L/G12C); assay: KRASG12C binding assay (LC-MS compound binding rate); details: test compound final concentration 0.5 μM, 25° C., 1 hour
In short: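 Gppcp-bound K-Ras4B G12C (aa 1-169, C51S/C80L/C118S) at 50 nM in 1×TBS, 0.1 mM TCEP, 0.25 mM MgCl2, 50 μM Gppcp was incubated 1 hour at 25° C with compound at 0.5 μM final. Intact-protein LC-MS gave binding rate as single-adduct signal over total KRAS signal, graded A (≥80%) to E (<20%).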

[3] = MIA PaCa-2, with EGF 100 ng/ml, read-out: IC50 MIA PaCa-2 with EGF
[4] = MIA PaCa-2, without EGF, read-out: IC50 MIA PaCa-2 without EGF

SMILES | KRAS inhibition activity under EGF treatment ([1]; MIA PaCa-2, EGF treatment) | pIC50 [1, 3] | pIC50 [1, 4] | binding rate [2]
C=CC(=O)N1CCN(c2ncnc3c(F)c(-c4c(O)cccc4F)c(Cl)cc23)CC1 [ARS-1620, reference compound] | attenuated by EGF treatment | 5.38 | 6.19 | E (a binding rate of less than 20% is rated “E”)
CCc1nc2cc(-c3cccc(NC(=O)c4ccc(NC(=O)/C=C/CN[C@H]5CC[C@H](OC)CC5)c(C#N)c4)c3)c(C(F)(F)F)cc2n1C [Example 1, 3-cyano-N-(3-(2-ethyl-1-methyl-6-(trifluoromethyl)-1H-benzo[d]imidazol-5-yl)phenyl)-4-((E)-4-(((1r, 4r)-4-methoxycyclohexyl)amino)but-2-enamido)benzamide] | – | 6.00 | 6.11 | A (A binding rate of 80% or more is rated “A”)
CO[C@H]1CC[C@H](NC/C=C/C(=O)Nc2ccc(C(=O)c3ccc4c(-c5cc6ncn(C)c6cc5C)cccn34)cc2C#N)CC1 [Example 4, (E)-N-(2-cyano-4-(8-(1,6-dimethyl-1H-benzo[d]imidazol-5-yl)indolizine-3-carbonyl)phenyl)-4-(((1r,4r)-4-methoxycyclohexyl)amino)but-2-enamide] | – | 6.36 | 6.52 | A (A binding rate of 80% or more is rated “A”)
